Data from patent US20120076788A1, “C-CBL AND ANTAGONISTS THEREOF FOR THE TREATMENT AND DIAGNOSIS OF CANCER” (Centre National De La Recherche Scientifique (C.N.R.S.), priority 2009, published 2012).
“Also recorded” adds a separate entry of the source.

Key:
[1] = system: c-Cbl KO and WT Mouse Embryonic Fibroblasts (MEF); test: Western blotting of apoptosis proteins in c-Cbl KO and WT MEFs treated with apoptotic inducers; type: cell-based; conditions: for XIAP expression, decrease relative to control level / c-IAP2 expression, decrease relative to control level: MEFs, apoptosis activation 24 hours (FIG. 3B)
Experimental: The western blotting (WB) experiments, immunohistochemistry (IHC) experiments and RT PCR experiments, with coamplification of the S 20 ribosomal gene, were carried out according to conventional methods already described in e.g. Omezzine et al. (2003, Biol. Reprod., 69: 752-760), Bozec et al. (2004, J. Endocr., 183: 79-90) and El Chami et al. (2005, J. Cell. Biol., 651-661).
(§1) The MEFs KO for c-cbl and the MEFs WT were cultured in DMEM, 10% FCS. The apoptosis inducers were used at a final concentration of 0.5 mM in case of H2O2, and at 10 μM in case of etoposide. The cells were tested for apoptosis 24 hours after treatment. The human prostate cancer lines were transfected with 125 nM of c-cbl IRNA for 6 hours, and were tested for quenching of c-cbl expression 24 or 48 hours after transfection. The treatment was the same with RAT1-MEN2A cells.
(§2) Each of them are known to involve different signaling routes, both leading to the mitochondrial pathway of apoptosis. Hydrogen peroxide activates C-Jun Kinase, whereas Etoposide blocks topoisomerase II causing dsDNA breaks and DNA-PK/p53 activation (DeYulia et al. 2005 Proc Natl Acad Sci USA 102:5044-9; Kamata and Hirata 1999 Cell Signal 11:1-14; Karpinich et al. 2002 J Biol Chem 277:16547-52).

[2] = system: LNCaP cells; test: Protein expression in LNCaP cells cultured with hydrogen peroxide or etoposide; type: cell-based, human; conditions: 24 hours; for Bax protein expression: particularly upon etoposide treatment; for Bcl-2 expression / c-Cbl expression / c-IAP2 expression: versus absence of agent
Experimental: (§3) A. c-Cbl expression upon a 24 hours treatment with 25 or 50 nM of hydrogen peroxide respectively, or with 10 or 30 μM of etoposide respectively. Expression of the anti-apoptotic Bcl-2 and c-IAP2 proteins and of the pro-apoptotic Bcl-2 family protein Bax is also shown. B. c-Cbl expression after 48 hours of c-Cbl silencing. Expression of APE1, which is indicative of oxidative stress, is shown compared with medium control (Ctrl) and with si-control (si-Ctrl).
(§4) LNCaP is a human cell line, derived from a prostatic hormone-dependent metastatic tumor. The cells were maintained in RPMI 1640 medium (Invitrogen), supplemented with 7.5% FCS, 20 μg/ml streptomycin, 20 U/ml nystatin. LNCaP were used between the passages 50-60. For western-blotting LNCaP cells were seeded in 10cm disk (22.10^5 cells) and 6 cm disk (8.10^5 cells) respectively, with 5 disks per condition. Cells were allowed to attach for 24H and treated with various concentrations of R1881 at day 0. All the cells, including the controls, were cultured in the presence of the same ethanol concentration. For H2O2 or etoposide treatment, LNCaP cells were cultured for 24 hours in the presence of known concentrations of H2O2 or etoposide. The RNA silencing was classically done in Optimen medium (Gibco) using lipofectamine 2000 following the manufacturer's instructions (Invitrogen). The c-Cbl RNAi was generated by Eurogentec. Its sequence is: […] (SEQ ID NO: 2). The siRNA controls were purchased from Invitrogen : siRNA-A (sc-37007) and siRNA-B (sc-44230).

[3] = system: c-Cbl KO and WT Mouse Embryonic Fibroblasts (MEF); test: Apoptotic cells (DAPI nuclear fragmentation, TUNEL) in c-Cbl KO and WT MEFs treated with H2O2 or Etoposide; type: cell-based; set-up: more apoptotic cells in KO than in WT MEF cultures: dose or concentration left out as unconfirmed; conditions: for more apoptotic cells in KO than in WT MEF cultures: average, 16 or 24 H
Experimental: as §1, with “The apoptosis inducers were used at a final concentration of 0.5 mM in case of H2O2, and at 10 μM in case of etoposide.” left out
as §2

[4] = system: c-Cbl; test: c-Cbl expression (Western blotting, RT-PCR) in prostate lobes of adult rats exposed to flutamide; type: in vivo, rat
[5] = system: c-Cbl; test: In situ c-Cbl staining of rat prostate after flutamide treatment; type: in vivo; conditions: 10mg/kg/day, 96 H
[6] = system: c-cbl; test: Effectiveness of c-cbl iRNA on c-cbl; conditions: human, rat and mouse c-cbl
Excerpt: (§5) The c-cbl IRNA was produced by Eurogentec and had the following sequences: 5′ […] 3′ (SEQ ID NO: 2) and 5′ […] 3′ (SEQ ID NO: 3). It is effective on human, rat and mouse c-cbl. It is ineffective on cbl-b.

[7] = system: cbl-b; test: Effectiveness of c-cbl iRNA on cbl-b
Excerpt: as §5

[8] = system: LNCaP cells; test: c-Cbl silencing in LNCaP cells, APE1/REF1 oxidative stress signal; type: cell-based, human; conditions: 48 hours of c-Cbl silencing, versus Ctrl and si-Ctrl
Experimental: as §3
as §4, with “(SEQ ID NO: 2). The siRNA controls were purchased from Invitrogen : siRNA-A (sc-37007) and siRNA-B (sc-44230).” left out

Molecule | cleaved caspase 3 expression ([1]; KO or WT MEFs, 24 hours) | XIAP expression, decrease relative to control level [1] | c-IAP2 expression, decrease relative to control level [1] | Bax protein expression [2] | Bcl-2 expression [2] | c-Cbl expression [2] | c-IAP2 expression [2] | percentage of apoptotic cells ([3]; WT MEF cultures) | more apoptotic cells in KO than in WT MEF cultures [3] | percentage of apoptotic cells ([3]; c-Cbl KO MEF cultures) | activated caspase 3 expression increase ([1]; WT MEFs, 24 hours) | cleaved (activated) caspase 3 expression relative to control ([1]; c-Cbl KO MEFs, 24 hours) | c-Cbl expression ([2]; listed as H202) | sensitivity of c-cbl KO MEF cells versus WT MEF cells ([3]; TUNEL, FIG. 10) | dose from which decreased c-cbl expression was observed ([4]; dose/effect experiments, rat ventral prostate) | impact on the number of living cells ([4]; doses 2 to 10 mg/kg/day) | integrity of the epithelium border [5] | effectiveness on c-cbl [6] | effectiveness on cbl-b [7] | anti-APE1/REF1 signal (oxidative stress) [8]
COc1cc([C@@H]2c3cc4c(cc3[C@@H](O[C@@H]3O[C@@H]5CO[C@@H](C)O[C@H]5[C@H](O)[C@H]3O)[C@H]3COC(=O)[C@H]23)OCO4)cc(OC)c1O [Etoposide] | slight but not significant increase | around one/third | around one/third | increased | slightly less expressed | slightly less expressed; also recorded: decreased | slightly less expressed | 5.8% | 29% | 4% |  |  |  |  |  |  |  |  |  | 
OO [H2O2, Hydrogen peroxide] |  | around one/third | around one/third | increased | slightly less expressed | slightly less expressed | slightly less expressed | 4.9% | 43% | 8.75% | two times | three times and half | decreased | about twice |  |  |  |  |  | 
CC(C)C(=O)Nc1ccc([N+](=O)[O-])c(C(F)(F)F)c1 [flutamide] |  |  |  |  |  |  |  |  |  |  |  |  |  |  | ≥ 2 mg/kg/day | very weak impact | did not affect at all |  |  | 
c-cbl IRNA: c-cbl iRNA produced by Eurogentec, sequences SEQ ID NO: 2 and SEQ ID NO: 3 (chain 1 GGGAAGGCUUCUAUUUGUU; chain 2 CUGUCCAUCUAGAGACAAA; listed as RNA, chemistry not given here) |  |  |  |  |  |  |  |  |  |  |  |  |  |  |  |  |  | effective | ineffective | slight decrease
